Measurements taken from publication PMC6277555, “Short Symmetric-End Antimicrobial Peptides Centered on β-Turn Amino Acids Unit Improve Selectivity and Stability” (Frontiers in Microbiology, 2018).
Converted amounts (≈) assume the structure as drawn. Residues, ends and D or L forms follow the SMILES beside them.

Key:
E. coli ATCC25922 = type: cell-based, Escherichia coli
Protocol: The minimal inhibitory concentration (MIC) was determined according to a previously described method ([Chou et al., 2016]). Bacteria were cultured overnight to mid-log phase in MHB at 37°C and then diluted to give final concentrations ranging from 2 × 10^5 to 7 × 10^5 CFU/mL. Then, 50 μL of serial twofold dilutions of the peptides were added to each well in 96-well microtiter plates with a mixed solution containing 0.01% acetic acid and 0.2% bovine serum albumin (BSA, Sigma) was used to dissolve and dilute the peptides. Then, equal amounts of bacterial aliquots were incubated with the above peptide solution for 18-24 h at 37°C. The experiment was performed in triplicate using three replicates for each peptide and each bacterium. The broth was employed as a negative control and the broth with microbial cells was used as a positive control. The lowest concentration of peptide that prevented visible turbidity was defined as the MIC. The condition sensitivity of peptides was tested in an MIC assay in different environments, including salt sensitivity, thermal sensitivity and different pH values similar to our previous method ([[…] et al., 2008]; [Ma et al., 2012]). […] For the heat resistance experiments, the peptides were incubated at 100°C for 30 min and cooled on ice for 10 min. […] The determination methods for these MIC assays were same as described above. To test the effects of serum on the antimicrobial activities of the peptides, human serum was dissolved in MHB to reach final concentrations of 25 and 50%. The determination methods for these MIC assays were same as described above.

E. coli UB1005 = type: cell-based, Escherichia coli
Protocol: (§1) The minimal inhibitory concentration (MIC) was determined according to a previously described method ([Chou et al., 2016]). Bacteria were cultured overnight to mid-log phase in MHB at 37°C and then diluted to give final concentrations ranging from 2 × 10^5 to 7 × 10^5 CFU/mL. Then, 50 μL of serial twofold dilutions of the peptides were added to each well in 96-well microtiter plates with a mixed solution containing 0.01% acetic acid and 0.2% bovine serum albumin (BSA, Sigma) was used to dissolve and dilute the peptides. Then, equal amounts of bacterial aliquots were incubated with the above peptide solution for 18–24 h at 37°C. The experiment was performed in triplicate using three replicates for each peptide and each bacterium. The broth was employed as a negative control and the broth with microbial cells was used as a positive control. The lowest concentration of peptide that prevented visible turbidity was defined as the MIC.

S. typhimurium ATCC 7731 = type: cell-based, Salmonella entericaserovar Typhimurium
Protocol: as §1

S. aureus ATCC 43300 = type: cell-based, Staphylococcus aureus
Protocol: as §1

S. faecalis ATCC 29212 = type: cell-based, Streptococcus faecalis
Protocol: as §1

hRBCs = assay: Hemolytic activity; type: cell-based, human; conditions: peptide concentration resulting in 5% hemolysis of hRBCs; PBS, 1 h, 37°C
Protocol: (§2) The hemolytic activity of the peptides was detected using a previously described modified method ([Wang et al., 2015]). One milliliter of fresh hRBCs was obtained from a healthy donor (Zhihua Wang, Harbin, China) in a polycarbonate tube containing heparin. The collected hRBCs were centrifuged at 1000 × g for 5 min at 4°C and resuspended in PBS buffer (pH 7.2). The hRBCs were washed three times and then incubated with an equal volume of the respective peptide dissolved in PBS for 1 h at 37°C. Then, the hRBC suspension was placed into a 96-well microtiter plater with 50 μL of tested peptide solution at different concentrations and the mixture was incubated for 1 h at 37°C. […] The minimum hemolytic concentrations (MHCs) were defined as the peptide concentrations resulting in 5% hemolysis.

[1] = test system: Gram-negative and Gram-positive bacterial strains; assay: Geometric mean of MICs and therapeutic index; type: cell-based
Protocol: as §2, §1

E. coli = assay: Time killing assay; type: cell-based, Escherichia coli; conditions: mean of three independent assays
Protocol: (§3) The ability of peptides to kill bacterial cells was further investigated by analyzing the fraction of cell survival upon peptide treatment at various exposure times according to a previously described method ([Wiradharma et al., 2012]). Briefly, E. coli and S. aureus were treated at MIC and 2 × MIC concentrations with peptides. At various time periods (0, 5, 10, 30, 60, 90, 120, and 150 min), microbial suspensions were diluted at three different dilutions and plated on MHA plates. Microbial colonies were formed and counted after 24 h of incubation. The results were presented as the mean data from three independent assays.

S. aureus = assay: Time killing assay; type: cell-based, Staphylococcus aureus; conditions: mean of three independent assays
Protocol: as §3

[2] = LPS-binding assay (BODIPY-TR-cadaverine displacement); parameters: species or system Escherichia coli; conditions: BC displacement at the MIC concentration; relative to 10 μg/mL polymyxin B
Protocol: The binding affinities of peptides to LPS were examined using the BODIPY-TR-cadaverine fluorescent dye (BC, Sigma, United States) displacement assay, in which a probe bound to cell-free LPS results in dequenching of BC fluorescence. Stock solutions of LPS from E. coli O111:B4 (5 mg/mL; Sigma-Aldrich, China) and BC (2.5 mg/mL; Sigma-Aldrich, China) were prepared and diluted in Tris buffer (pH 7.4, 50 mM) to reach a final concentration of 50 μg/mL of LPS and 5 μg/mL BC. A 100 μL aliquot of the LPS-probe and peptide mixture (50 μL LPS and BC solutions at final concentrations of 25 μg/mL LPS and 2.5 μg/mL BODIPY-TR-cadaverine, 50 μL peptide with various concentrations ranging from 1 to 64 μM) was added in a sterile 96-well black plate. The fluorescence was measured on a spectrofluorophotometer (the Infinite 200 pro, Tecan, China) at excitation and emission wavelengths of 580 and 620 nm, respectively, with each test performed independently in triplicate. The values were converted to % ΔF (AU) using the following equation:
where Fobs is the observed fluorescence at a given peptide concentration, F0 is the initial fluorescence of BC with LPS in the absence of peptides, and F100 is the BC fluorescence with LPS cells upon addition of 10 μg/mL polymyxin B, which is a prototype LPS binder and was used as a positive control.

With `CC[C@H](C)[C@H](N)C(=O)N[C@@H](Cc1c[nH]cn1)C(=O)N[C@@H](CCCCN)C(=O)N[C@@H](Cc1ccccc1)C(=O)N[C@@H](Cc1c[nH]c2ccccc12)C(=O)N[C@@H](CCCNC(=N)N)C(=O)N[C@@H](CS)C(=O)N[C@@H](CCCNC(=N)N)C(=O)N[C@@H](CCCNC(=N)N)C(=O)N[C@@H](CCCNC(=N)N)C(=O)N[C@@H](Cc1ccccc1)C(=O)N[C@@H](CS)C(=O)N[C@@H](CCCNC(=N)N)C(=O)N[C@@H](Cc1c[nH]c2ccccc12)C(=O)N[C@@H](Cc1ccccc1)C(=O)N[C@@H](CCCCN)C(=O)N[C@@H](Cc1c[nH]cn1)C(=O)N[C@H](C(N)=O)[C@@H](C)CC` [PQ] (H-IHKFWRCRRRFCRWFKHI-NH2; N-terminus assumed) the MIC (E. coli ATCC25922; ATCC25922) was 16 µM (≈ 41.2 µg/mL), the “MIC, CaCl2” value (E. coli ATCC25922; ATCC25922) was 32 µM (≈ 82.4 µg/mL) and the “MIC, Control” value (E. coli ATCC25922; ATCC25922) was 16 µM (≈ 41.2 µg/mL). The “MIC, FeCl3” value (E. coli ATCC25922; ATCC25922) was 8 µM (≈ 20.6 µg/mL), the “MIC, Heat (100°C)” value (E. coli ATCC25922; ATCC25922) was 32 µM (≈ 82.4 µg/mL) and the “MIC, KCl” value (E. coli ATCC25922; ATCC25922) was 4 µM (≈ 10.3 µg/mL). For the same compound, the “MIC, MgCl2” value (E. coli ATCC25922; ATCC25922) was 4 µM (≈ 10.3 µg/mL), the “MIC, NH4Cl” value (E. coli ATCC25922; ATCC25922) was 4 µM (≈ 10.3 µg/mL) and the “MIC, NaCl” value (E. coli ATCC25922; ATCC25922) was 8 µM (≈ 20.6 µg/mL). The “MIC, ZnCl2” value (E. coli ATCC25922; ATCC25922) was 4 µM (≈ 10.3 µg/mL), the “MIC, pH 4.0” value (E. coli ATCC25922; ATCC25922, pH 4) was 8 μM and the “MIC, pH 6.0” value (E. coli ATCC25922; ATCC25922, pH 6) was 8 μM. For the same compound, the “MIC, pH 8.0” value (E. coli ATCC25922; ATCC25922, pH 8) was 4 μM, the “MIC, pH 10.0” value (E. coli ATCC25922; ATCC25922, pH 10) was 4 μM and the MIC (E. coli UB1005) was 8 µM (≈ 20.6 µg/mL). For the same compound, the MIC (S. typhimurium ATCC 7731) was 8 µM (≈ 20.6 µg/mL), the MIC (S. aureus ATCC 43300) was 8 µM (≈ 20.6 µg/mL) and the MIC (S. faecalis ATCC 29212) was 16 µM (≈ 41.2 µg/mL). For the same compound, the “MHC (minimum hemolytic concentration)” value (hRBCs) was >128 µM, the “GM (geometric mean of the MIC values)” value ([1]; all ten tested strains) was 9.8 µM and the Therapeutic index ([1]; from MHC and GM) was 26.1. The “Time to kill E. coli” value (E. coli; peptide at 1 × MIC) was 30 min, the “Time to kill E. coli” value (E. coli; peptide at 2 × MIC) was 30 min and the “Time to kill S. aureus” value (S. aureus; peptide at 1 × MIC) was 30 min. For the same compound, the “Time to kill S. aureus” value (S. aureus; peptide at 2 × MIC) was 30 min and the “LPS binding, fluorescence (% ΔF)” value [2] was “above 80%”.
